Measurements reported in US20090220612A1, “HOLLOW-FIBRE-BASED BIOCOMPATIBLE DRUG DELIVERY DEVICE WITH ONE OR MORE LAYERS” (priority 2005, published 2009).

Assay: Polymer degradation and in vitro 5-FU release from hollow fibres in PBS pH 7.4
Assay type: physicochemical
Settings: FIG. 30
Protocol: 0.07 g of each hollow fibre was weighed and immersed in 20 ml of de-ionised water in a screw-topped bottle. These were then placed on an orbital shaker maintained at a temperature of 37° C. The pH of the degradation medium was measured every two days to monitor the rate of generation of acidic byproducts. A Jenway (Model 3051) pH meter was used for this purpose.
In vitro drug release studies were carried out in phosphate buffer saline (PBS) at both room temperature (˜25° C.) and 37° C. PBS solution was applied to keep the degrading system at a constant pH 7.4 value. Every type of polymer fibre was cut into 10 pieces, with 5 cm each. At room temperature, each fibre piece was first sealed at one end with bio-adhesive, and was injected with liquid 5-FU with a syringe pump from the other open end before it was sealed. […] The amount of drug release was measured every 24 hours within the 3 months. The quantitative measurement of the amount of drug released was measured with a UV Spectrometer. A calibration curve was performed as the concentration versus absorbance for the drug in buffer (wavelength of absorption, □=266 nm (5-FU) and λ=298 nm (cisplatin and carboplatin) or atomic absorption spectroscopy) which was plotted in a logarithmic scale gave a straight line. […] The absorbance of the drug was noted. […]

Q: With `O=c1[nH]cc(F)c(=O)[nH]1` [5-FU, fluorouracil] as the compound, how does the “effect on degradation and drug release rate of polymer hollow fibres” value read?
A: Its value is “accelerates the degradation and drug release rate”.
